Test results reported in patent US8796284B2, “4-aminopyrimidine derivatives and their as as adenosine A2a receptor antagonists” (Palobiofarma, S.L., priority 2010, dated 2014).
pKi: −log10 of the molar value.

Target: A2a adenosine receptor (Homo sapiens (Human), UniProt P29274)
Assay: Cyclic adenosine monophosphate (cAMP) production measurement in CHO-A2A cells
Assay type: cell-based
Conditions: 1 μM NECA, 30 μM rolipram, cAMP enzymeimmunoassay
Protocol: (§1) Concentration-response binding competition curves were carried out by assaying 6 different concentrations (range between 10 nm to 100 μM). […] IC50 values were obtained by fitting the data with non-linear regression, with Prism 2.1 software (GraphPad, San Diego, Calif.). Cyclic Adenosine Monophosphate Production Measurement.
These assays were performed at adenosine receptors transfected using a cAMP enzymeimmunoassay kit (Amersham Biosciences). CHO-A2A cells were seeded (10000 cells/well) in 96-well culture plates and incubated at 37° C. in an atmosphere with 5% CO2 in Dulbecco's Modified Eagle's Medium Nutrient Mixture F-12 (DMEM F-12), containing 10% Foetal Calf Serum (FCS) and 1% L-Glutamine. Cells were washed 3× with 200 μl assay medium (DMEM-F12 and 25 mM HEPES pH=7.4) and pre-incubated with assay medium containing 30 μM rolipram and test compounds at 37° C. for 15 min. 1 μM NECA was incubated for 15 min at 37° C. (total incubation time 30 min). Reaction was stopped with lysis buffer supplied in the kit and the enzymeimmunoassay was carried out for detection of intracellular cAMP at 450 nm in an Ultra Evolution detector (Tecan). Data were fitted by non-linear regression using GraphPad Prism v2.01 (GraphPad Software).

A2a adenosine receptor, sequence (P29274 whole entry): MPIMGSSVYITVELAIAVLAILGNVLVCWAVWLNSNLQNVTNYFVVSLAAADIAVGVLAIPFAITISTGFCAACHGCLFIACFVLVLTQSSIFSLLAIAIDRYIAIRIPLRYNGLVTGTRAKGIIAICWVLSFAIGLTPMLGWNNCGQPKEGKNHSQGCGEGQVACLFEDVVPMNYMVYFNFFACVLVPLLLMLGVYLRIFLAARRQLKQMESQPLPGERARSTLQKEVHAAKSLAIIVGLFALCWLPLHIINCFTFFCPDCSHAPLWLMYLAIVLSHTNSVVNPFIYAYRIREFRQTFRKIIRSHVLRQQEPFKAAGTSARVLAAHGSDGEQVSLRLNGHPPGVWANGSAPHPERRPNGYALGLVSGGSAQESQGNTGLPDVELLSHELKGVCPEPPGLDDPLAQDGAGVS

Compared with Nc1nc(-c2nccs2)nc(-c2nccs2)c1Br [Example 93, 5-Bromo-2,6-di(thiazol-2-yl)pyrimidin-4-amine], CN(C)c1nc(-n2cccn2)nc(N)c1Br [Example 13, 5-bromo-N^4,N^4-dimethyl-2-(1H-pyrazol-1-yl)pyrimidine-4,6-diamine] is 0.62 log units lower in pKi: 7.92 for the first, 7.30 for the second. The first binds more tightly here.

Nc1nc(-n2cccn2)nc(NC2CC2)c1Br [Example 8, 5-bromo-N^4-cyclopropyl-2-(1H-pyrazol-1-yl)pyrimidine-4,6-diamine] showed a pKi of 7.22.

Target: hA2a receptors (Homo sapiens (Human), UniProt P29274)
Sequence (P29274 whole entry): as above
Assay: Adenosine A2a receptor subtype competition radioligand binding assay
Conditions: membranes from hA2a receptors transfected to HeLa cells, [3H]ZM241385 as radioligand, Cheng-Prusoff
Protocol: Pharmacological Activity Adenosine A2a Receptor Subtype Competition Radioligand Binding Assay
Human membranes from recombinant adenosine receptors were purchased from Receptor Biology, Inc. (USA)
Competition assays were carried out by incubation of membranes from hA2a receptors transfected to HeLa cells, [^3H]ZM241385 as radioligand, buffer (50 mM Tris-HCl (pH=7.4), 10 mM MgCl2, 1 mM EDTA, 2 units/ml adenosine deaminase), and unlabelled ligand in a total volume of 0.2 ml for 30 min at 25° C. NECA was used to determinate non-specific binding. Filter over Schleicher&Schuell GF/52 filters (pre-soaked 0.5% polyethylenimine) in a Brandel cell harvester. Unbound radioligand was removed with 3×250 μl ice-cold 50 mM Tris-HCl (pH=7.4), 10 mM MgCl and 1 mM EDTA.
as §1

Compared with Nc1nc(-c2nccs2)nc(-c2nccs2)c1Br [Example 93, 5-Bromo-2,6-di(thiazol-2-yl)pyrimidin-4-amine], CNc1nc(-n2cccn2)nc(N)c1Br [Example 24, 5-bromo-N^4-methyl-2-(1H-pyrazol-1-yl)pyrimidine-4,6-diamine] is 1.20 log units lower in pKi: 9.00 for the first, 7.80 for the second.

Nc1nc(-n2cccn2)nc(N2CCCC2)c1Br [Example 3, 5-bromo-2-(1H-pyrazol-1-yl)-6-(pyrrolidin-1-yl)pyrimidin-4-amine] and Nc1nc(-n2cccn2)nc(N2CCCCC2)c1Br [Example 5, 5-bromo-6-(piperidin-1-yl)-2-(1H-pyrazol-1-yl)pyrimidin-4-amine] are within 0.2 log units of each other in pKi: 7.96 for the first, 7.85 for the second.

CC(C)Sc1nc(-n2cccn2)nc(N)c1Br [Example 38, 5-bromo-6-(isopropylthio)-2-(1H-pyrazol-1-yl)pyrimidin-4-amine] and CCSc1nc(-n2cccn2)nc(N)c1Br [Example 36, 5-bromo-6-(ethylthio)-2-(1H-pyrazol-1-yl)pyrimidin-4-amine] are within 0.2 log units of each other in pKi: 8.15 for the first, 8.10 for the second.

Nc1nc(-n2cccn2)nc(NC2CC2)c1Br [Example 8, 5-bromo-N^4-cyclopropyl-2-(1H-pyrazol-1-yl)pyrimidine-4,6-diamine] and Nc1nc(-n2cccn2)nc(NC2CCC2)c1Br [Example 10, 5-bromo-N^4-cyclobutyl-2-(1H-pyrazol-1-yl)pyrimidine-4,6-diamine] are within 0.2 log units of each other in pKi: 7.74 for the first, 7.68 for the second.

Compared with N#Cc1c(N)nc(-n2cccn2)nc1-n1cccn1 [Example 48, 4-amino-2,6-di-(1H-pyrazol-1-yl)pyrimidine-5-carbonitrile], Nc1nc(-n2cccn2)nc(-n2cccn2)c1Cl [Example 46, 5-chloro-2,6-di-(1H-pyrazol-1-yl)pyrimidine-4-amine] is 0.38 log units lower in pKi: 8.15 for the first, 7.77 for the second. The first binds more tightly here.

Going from Nc1nc(-n2cccn2)nc(OCC(F)(F)F)c1Br [Example 44, 6-(2,2,2-trifluoroethoxy)-5-bromo-2-(1H-pyrazol-1-yl)pyrimidin-4-amine] to CN(C)c1nc(-n2cccn2)nc(N)c1Br [Example 13, 5-bromo-N^4,N^4-dimethyl-2-(1H-pyrazol-1-yl)pyrimidine-4,6-diamine], the pKi falls from 7.85 to 7.46 (0.39 log units). The first binds more tightly here.

Compared with Nc1nc(-n2cccn2)nc(N2CCC2)c1Br [Example 9, 6-(azetidin-1-yl)-5-bromo-2-(1H-pyrazol-1-yl)pyrimidin-4-amine], COC[C@H]1CCCN1c1nc(-n2cccn2)nc(N)c1Br [Example 20, 5-bromo-6-((R)-2-(methoxymethyl)pyrrolidin-1-yl)-2-(1H-pyrazol-1-yl)pyrimidin-4-amine] is 0.37 log units higher in pKi: 7.48 for the first, 7.85 for the second.

Going from Nc1nc(-n2cccn2)nc(NC2CCCC2)c1Br [Example 4, 5-bromo-N^4-cyclopentyl-2-(1H-pyrazol-1-yl)pyrimidine-4,6-diamine] to Nc1nc(-n2cccn2)nc(NCC2CC2)c1Br [Example 29, 5-bromo-N^4-(cyclopropylmethyl)-2-(1H-pyrazol-1-yl)pyrimidine-4,6-diamine], the pKi falls from 8.22 to 8.00 (0.22 log units).
